What was measured:
[1] = Solubility of the product in solvents; type: physicochemical; settings: free base (oily product)
[2] = system: souris Swiss; assay: Acute oral toxicity in mice (Lichfield and Wilcoxon method); type: in vivo; settings: mortality over 7 days
From the text: La toxicité aiguë des composés de l'invention a été déterminée par voie orale chez les souris Swiss des deux sexes, par la méthode de Lichfield et Wilcoxon. Des groupes de cinq souris de chaque sexe ont été traités par des doses croissantes du composé étudié et le taux de mortalité a été déterminé au cours des 7 jours suivant l'administration du produit.
On a trouvé les doses léthales (DL₅₀ en mg/kg) suivantes : […]

[3] = in benzène, éthanol, acétone, chloroforme
[4] = in eau, n-hexane, éther isopropylique, éther éthylique

Structure (SMILES)	solubilité [1, 3]	solubilité [1, 4]	DL₅₀ ([2]; souris femelle)	DL₅₀ ([2]; souris mâle)
Brc1ccc(C(Cn2ccnc2)c2ccccc2)cc1 (centres unmarked) [Exemple 1, 1-[2-(4-bromophényl)-2-phényléthyl]-1H-imidazole]	soluble	insoluble	375 (350-400) mg/kg	450 (400-475) mg/kg
Fc1ccc(C(Cn2ccnc2)c2ccccc2)cc1 (centres unmarked) [Exemple 2, 1-[2-(4-fluorophényl)-2-phényl éthyl]-1H-imidazole]	soluble	insoluble	465 (438-502) mg/kg	524 (457-538) mg/kg

Reference: EP0276583A1, “Imidazole derivatives, processes for their preparation and their fungicidal properties” (Instituto de Investigacion Y Desarrollo Quimico Biologico …, priority 1987, dated 1988)
